Source: ChEMBL document CHEMBL1128212, “Synthesis and biological evaluation of substituted flavones as gastroprotective agents” (1995)

What was measured:
Rattus norvegicus [1] = experiment: Percent protection from gastric damage in rats relative to vehicle control following intraperitoneal administration of 20 mg/Kg; format: functional, Stomach
Rattus norvegicus [2] = organism: Rattus norvegicus; experiment: The dose required to produce a 50% gastroprotection level relative to control; format: functional
Rattus norvegicus [3] = experiment: Compound was evaluated for its effect on rat liver microsomal cytochrome b5 by the change in its concentration at a dose of 250 mg/kg; format: functional, organism-based; parameters: dose 250 mg/kg
Rattus norvegicus [4] = experiment: Compound was evaluated for its effect on rat liver microsomal NADPH-[…] c reductase by the change in its concentration at a dose of 250 mg/kg; format: functional, organism-based; parameters: dose 250 mg/kg
Rattus norvegicus [5] = experiment: Compound was evaluated for its effect on rat liver microsomal EROD(7-ethoxyresorufin O-dealkylase) by the change in its concentration at a dose of 250 mg/kg; format: functional, organism-based; parameters: dose 250 mg/kg
Rattus norvegicus [6] = experiment: Compound was evaluated for its effect on rat liver microsomal cytochrome P450 by the change in its concentration at a dose of 250 mg/kg; format: functional, organism-based; parameters: dose 250 mg/kg
Rattus norvegicus [7] = experiment: Compound was evaluated for its effect on rat liver microsomal EROD(7-ethoxyresorufin O-dealkylase) by the change in its concentration at a dose of 268 mg/kg; format: functional, organism-based; parameters: dose 268 mg/kg
Rattus norvegicus [8] = experiment: Compound was evaluated for its effect on rat liver microsomal NADPH-[…] c reductase by the change in its concentration at a dose of 268 mg/kg; format: functional, organism-based; parameters: dose 268 mg/kg
Rattus norvegicus [9] = experiment: Gastroprotection percentage taken from rat indomethacin damage model at a dose 30 mg/kg administered orally; format: functional; details: route oral
Rattus norvegicus [10] = experiment: Compound was evaluated for its effect on rat liver microsomal cytochrome P450 by the change in its concentration at a dose of 268 mg/kg; format: functional, organism-based; parameters: dose 268 mg/kg
Rattus norvegicus [11] = experiment: Compound was evaluated for its effect on rat liver microsomal cytochrome b5 by the change in its concentration at a dose of 268 mg/kg; format: functional, organism-based; parameters: dose 268 mg/kg
Rattus norvegicus [12] = experiment: Gastroprotection percentage taken from rat indomethacin damage model at a dose 0.25 mg/kg administered orally; format: functional; details: route oral
Rattus norvegicus [13] = experiment: Compound was evaluated for its effect on rat liver microsomal cytochrome b5 by the change in its concentration at a dose of 100 mg/kg; format: functional, organism-based; parameters: dose 100 mg/kg
Rattus norvegicus [14] = experiment: Compound was evaluated for its effect on rat liver microsomal cytochrome P450 by the change in its concentration at a dose of 100 mg/kg; format: functional, organism-based; parameters: dose 100 mg/kg
Rattus norvegicus [15] = experiment: Compound was evaluated for its effect on rat liver microsomal EROD(7-ethoxyresorufin O-dealkylase) by the change in its concentration at a dose of 100 mg/kg; format: functional, organism-based; parameters: dose 100 mg/kg
Rattus norvegicus [16] = experiment: Compound was evaluated for its effect on rat liver microsomal NADPH-[…] c reductase by the change in its concentration at a dose of 100 mg/kg; format: functional, organism-based; parameters: dose 100 mg/kg

SMILES	Protection (Rattus norvegicus [1])	also measured
O=c1cc(-c2ccccc2)oc2cc(O)ccc12 [7-HYDROXYFLAVONE]	75%	
CCOc1cccc2oc(-c3ccccc3)cc(=O)c12	36%	
O=c1cc(-c2ccccc2O)oc2ccccc12	78%	ED50 (Rattus norvegicus [2]): 15.6 mg/kg
COc1ccc(-c2cc(=O)c3ccccc3o2)cc1 [4'-METHOXYFLAVONE]	21%	
COc1ccc2oc(-c3ccccc3)cc(=O)c2c1 [6-METHOXYFLAVONE]	29%	
Cc1ccccc1-c1cc(=O)c2ccccc2o1	92%	
O=c1cc(-c2ccccc2)oc2cccc(O)c12 [5-HYDROXYFLAVONE]	58%	
O=c1c(O)c(-c2ccccc2)oc2ccccc12 [FLAVONOL]	47%	
COc1cccc(-c2cc(=O)c3ccccc3o2)c1	48%	
O=c1cc(-c2ccc(O)cc2)oc2ccccc12	63%	
CCOc1ccc2c(=O)cc(-c3ccccc3)oc2c1	87%	
COc1ccc2c(=O)cc(-c3ccccc3)oc2c1 [7-METHOXYFLAVONE]	89%	Concentration (nM min-1 (mg of protein)-1) (Rattus norvegicus [3]): 0.73; Concentration (nM min-1 (mg of protein)-1) (Rattus norvegicus [4]): 339; Concentration (nM min-1 (mg of protein)-1) (Rattus norvegicus [5]): 442; Concentration (nM min-1 (mg of protein)-1) (Rattus norvegicus [6]): 1.42; ED50 (Rattus norvegicus [2]): 5.9 mg/kg
COc1cccc2oc(-c3ccc(C(F)(F)F)cc3)cc(=O)c12	65%	
COc1cccc2oc(-c3ccc(F)cc3)cc(=O)c12	97%	Concentration (nM min-1 (mg of protein)-1) (Rattus norvegicus [7]): 1110; Concentration (nM min-1 (mg of protein)-1) (Rattus norvegicus [8]): 275; Protection (Rattus norvegicus [9]): 76%; Concentration (nM min-1 (mg of protein)-1) (Rattus norvegicus [10]): 1.17; Concentration (nM min-1 (mg of protein)-1) (Rattus norvegicus [11]): 0.65; ED50 (Rattus norvegicus [2]): 5.5 mg/kg
CCCCC[C@H](O)/C=C/[C@H]1[C@H](O)CC(=O)[C@@H]1C/C=C\CCCC(=O)O [DINOPROSTONE]	82%	Protection (Rattus norvegicus [12]): 61%
O=c1cc(-c2ccccc2)oc2ccc(O)cc12 [6-HYDROXYFLAVONE]	57%	
COc1cccc2oc(-c3ccc(Cl)cc3)cc(=O)c12	94%	
Cc1cccc2oc(-c3ccccc3)cc(=O)c12	52%	
CN/C(=N\CCSCc1nc[nH]c1C)NC#N [CIMETIDINE]	14%	
COc1ccc(-c2cc(=O)c3c(OC)cccc3o2)cc1	33%	

SMILES	Protection (Rattus norvegicus [1])	also measured
O=c1cc(-c2ccccc2)oc2ccc3ccccc3c12		Concentration (nM min-1 (mg of protein)-1) (Rattus norvegicus [13]): 0.79; Concentration (nM min-1 (mg of protein)-1) (Rattus norvegicus [14]): 2.02; Concentration (nM min-1 (mg of protein)-1) (Rattus norvegicus [15]): 5010; Concentration (nM min-1 (mg of protein)-1) (Rattus norvegicus [16]): 166
COc1cccc2oc(-c3ccc(C)cc3)cc(=O)c12	93%	
Cc1ccc2c(=O)cc(-c3ccccc3)oc2c1 [7-METHYLFLAVONE]	90%	ED50 (Rattus norvegicus [2]): 5.6 mg/kg
CCCCOc1cccc2oc(-c3ccccc3)cc(=O)c12	75%	
COc1cccc2oc(-c3ccccc3)cc(=O)c12	97%	ED50 (Rattus norvegicus [2]): 2.6 mg/kg
COc1ccc2c(=O)cc(-c3cccc(C(F)(F)F)c3)oc2c1	67%	
COc1cccc2oc(-c3cccc(C(F)(F)F)c3)cc(=O)c12	90%	ED50 (Rattus norvegicus [2]): 3.3 mg/kg
Cc1ccc(-c2cc(=O)c3ccccc3o2)cc1	68%	
O=c1cc(-c2cccc(O)c2)oc2ccccc12	71%	
O=c1cc(-c2ccccc2)oc2c(O)cccc12	46%	
COc1ccc2c(=O)cc(-c3ccccc3Cl)oc2c1	80%	
O=c1cc(-c2ccccc2)oc2ccccc12 [FLAVONE]	93%	ED50 (Rattus norvegicus [2]): 6.9 mg/kg
COc1c(-c2ccccc2)oc2ccccc2c1=O	41%	
COc1cccc2c(=O)cc(-c3ccccc3)oc12 [8-METHOXYFLAVONE]	53%	
C=CCOc1cccc2oc(-c3ccccc3)cc(=O)c12	57%	
COc1cccc2oc(-c3ccccc3Cl)cc(=O)c12	89%	
COc1ccc2c(=O)cc(-c3ccc(F)cc3)oc2c1	67%	ED50 (Rattus norvegicus [2]): 8.9 mg/kg
COc1cccc2oc(-c3ccc([N+](=O)[O-])cc3)cc(=O)c12	52%	
COc1ccccc1-c1cc(=O)c2ccccc2o1	66%	ED50 (Rattus norvegicus [2]): 22.4 mg/kg
